Reference: article PMC12736120, “First-in-Human Phase I Clinical Trial of SLC-391, a Novel and Selective AXL Inhibitor, in Patients with Advanced Solid Tumours” (Pharmaceuticals, 2025)

Test: Phase I safety and tolerability (DLTs, adverse events, laboratory, ECG)
Format: in vivo
Method: This study employed a standard 3 + 3 dose escalation design with a starting dose of 25 mg QD. […] Dose escalation decisions took into account all available data from evaluable subjects as well as PK and the safety profile of prior dose cohorts. […] There was a minimum 5-day stagger between dosing of the first and second subjects in each dose cohort. Dose escalation decisions were made by a data review committee (DRC) composed of, at minimum, the medical monitor, at least one principal investigator, and a sponsor representative, per the study DRC Plan. Dose escalation could continue until 2 or more subjects in the same dose cohort experienced a dose-limiting toxicity (DLT). DLTs were defined as Grade 3 or 4 adverse drug reactions (ADRs), with grades as defined in the National Cancer Institute Common Toxicity Criteria for Adverse Events (NCI-CTCAE) version 5.0. […] The MTD was defined as the highest dose at which no more than 1 of 6 subjects experienced a DLT during cycle 1 of the study drug. The MTD would have been exceeded if 2 or more subjects in a dose cohort of up to 6 subjects experienced a DLT. Subjects could continue treatment until disease progression, unacceptable toxicity, death, withdrawal of consent, or loss to follow-up.
Before enrolment in the study, all patients received a detailed medical history and physical examination. Clinical laboratory evaluations included clinical chemistry, complete blood count, urinalysis, coagulation factors, and a lipid panel. Other safety assessments included vital signs, physical examination, electrocardiogram, and echocardiogram with multigated acquisition (ECHO/MUGA). Safety assessments were performed on days 1, 8, 15, and 21 of cycle 1, and on day 1 of cycles 2 to 6.

[1] = Grade All, Overall Study (N = 35)
[2] = Possibly related, Overall BID (N = 15)
[3] = Possibly related, Overall QD (N = 20)
[4] = Possibly related, Overall Study (N = 35)
[5] = Probably related, Overall BID (N = 15)
[6] = Probably related, Overall QD (N = 20)
[7] = Probably related, Overall Study (N = 35)
[8] = Relatedness All, Overall BID (N = 15)
[9] = Relatedness All, Overall QD (N = 20)
[10] = Relatedness All, Overall Study (N = 35)

Structure (SMILES): Nc1ncc(-c2cnn(C3CCNCC3)c2)cc1-c1nnc(CC2CC2)o1 [SLC-391, 3-(5-[cyclopropylmethyl]-1,3,4-oxadiazol-2-yl)-5-(1-[piperidin-4-yl]-1H-pyrazol-4-yl)-pyridin-2-amine]
- TEAE: Musculoskeletal and connective tissue disorders [1]: 14 (40.0) n (%)
- TEAE: Nausea [1]: 24 (68.6) n (%)
- TEAE: Nervous system disorders [1]: 15 (42.9) n (%)
- TEAE: Oedema peripheral [1]: 4 (11.4) n (%)
- TEAE: Psychiatric disorders [1]: 5 (14.3) n (%)
- TEAE: Pyrexia [1]: 5 (14.3) n (%)
- TEAE: Renal and urinary disorders [1]: 6 (17.1) n (%)
- TEAE: Respiratory, thoracic, and mediastinal disorders [1]: 19 (54.3) n (%)
- TEAE: Skin and subcutaneous tissue disorders [1]: 10 (28.6) n (%)
- TEAE: Urinary tract infection [1]: 4 (11.4) n (%)
- TEAE: Vascular disorders [1]: 5 (14.3) n (%)
- TEAE: Vomiting [1]: 17 (48.6) n (%)
- TEAE: Weight decreased [1]: 6 (17.1) n (%)
- Any treatment-related adverse event (TRAE) [2]: 7 (46.7%) n (%)
- TRAE: Decreased appetite [2]: 1 (6.7%) n (%)
- TRAE: Diarrhoea [2]: 4 (26.7%) n (%)
- TRAE: Dysgeusia [2]: 1 (6.7%) n (%)
- TRAE: Fatigue [2]: 3 (20.0%) n (%)
- TRAE: Gastrointestinal disorders [2]: 5 (33.3%) n (%)
- TRAE: General disorders and administration site conditions [2]: 3 (20.0%) n (%)
- TRAE: Metabolism and nutrition disorders [2]: 1 (6.7%) n (%)
- TRAE: Nausea [2]: 4 (26.7%) n (%)
- TRAE: Nervous system disorders [2]: 1 (6.7%) n (%)
- TRAE: Skin and subcutaneous tissue disorders [2]: 2 (13.3%) n (%)
- TRAE: Vomiting [2]: 1 (6.7%) n (%)
- Any treatment-related adverse event (TRAE) [3]: 8 (40.0%) n (%)
- TRAE: Decreased appetite [3]: 3 (15.0%) n (%)
- TRAE: Diarrhoea [3]: 5 (25.0%) n (%)
- TRAE: Dysgeusia [3]: 0 n (%)
- TRAE: Fatigue [3]: 2 (10.0%) n (%)
- TRAE: Gastrointestinal disorders [3]: 8 (40.0%) n (%)
- TRAE: General disorders and administration site conditions [3]: 3 (15.0%) n (%)
- TRAE: Metabolism and nutrition disorders [3]: 4 (20.0%) n (%)
- TRAE: Nausea [3]: 5 (25.0%) n (%)
- TRAE: Nervous system disorders [3]: 1 (5.0%) n (%)
- TRAE: Skin and subcutaneous tissue disorders [3]: 4 (20.0%) n (%)
- TRAE: Vomiting [3]: 3 (15.0%) n (%)
- Any treatment-related adverse event (TRAE) [4]: 15 (42.9%) n (%)
- TRAE: Decreased appetite [4]: 4 (11.4%) n (%)
- TRAE: Diarrhoea [4]: 9 (25.7%) n (%)
- TRAE: Dysgeusia [4]: 1 (2.9%) n (%)
- TRAE: Fatigue [4]: 5 (14.3%) n (%)
- TRAE: Gastrointestinal disorders [4]: 13 (37.1%) n (%)
- TRAE: General disorders and administration site conditions [4]: 6 (17.1%) n (%)
- TRAE: Metabolism and nutrition disorders [4]: 5 (14.3%) n (%)
- TRAE: Nausea [4]: 9 (25.7%) n (%)
- TRAE: Nervous system disorders [4]: 2 (5.7%) n (%)
- TRAE: Skin and subcutaneous tissue disorders [4]: 6 (17.1%) n (%)
- TRAE: Vomiting [4]: 4 (11.4%) n (%)
- Any treatment-related adverse event (TRAE) [5]: 1 (6.7%) n (%)
- TRAE: Diarrhoea [5]: 1 (6.7%) n (%)
- TRAE: Dysgeusia [5]: 0 n (%)
- TRAE: Gastrointestinal disorders [5]: 1 (6.7%) n (%)
- TRAE: Nausea [5]: 0 n (%)
- TRAE: Nervous system disorders [5]: 0 n (%)
- TRAE: Skin and subcutaneous tissue disorders [5]: 0 n (%)
- TRAE: Vomiting [5]: 0 n (%)
- Any treatment-related adverse event (TRAE) [6]: 3 (15.0%) n (%)
- TRAE: Diarrhoea [6]: 0 n (%)
- TRAE: Dysgeusia [6]: 1 (5.0%) n (%)
- TRAE: Gastrointestinal disorders [6]: 2 (10.0%) n (%)
- TRAE: Nausea [6]: 2 (10.0%) n (%)
- TRAE: Nervous system disorders [6]: 2 (10.0%) n (%)
- TRAE: Skin and subcutaneous tissue disorders [6]: 2 (10.0%) n (%)
- TRAE: Vomiting [6]: 1 (5.0%) n (%)
- Any treatment-related adverse event (TRAE) [7]: 4 (11.4%) n (%)
- TRAE: Diarrhoea [7]: 1 (2.9%) n (%)
- TRAE: Dysgeusia [7]: 1 (2.9%) n (%)
- TRAE: Gastrointestinal disorders [7]: 3 (8.6%) n (%)
- TRAE: Nausea [7]: 2 (5.7%) n (%)
- TRAE: Nervous system disorders [7]: 2 (5.7%) n (%)
- TRAE: Skin and subcutaneous tissue disorders [7]: 2 (5.7%) n (%)
- TRAE: Vomiting [7]: 1 (2.9%) n (%)
- SAEs, subjects (QD cohorts): 20.0%
- TEAEs leading to treatment interruption or missed dose (QD cohorts): 20.0%
- TEAEs leading to treatment or study discontinuation, subjects (QD cohorts): 20.0%
- subjects with Grade 3 TEAEs (QD cohorts): 30.0%
- subjects with TRAEs (QD cohorts): 90.0%
- subjects with at least one TEAE (QD cohorts): 95.0%
- Any treatment-related adverse event (TRAE) [8]: 13 (86.7%) n (%)
- TRAE: Decreased appetite [8]: 3 (20.0%) n (%)
- TRAE: Diarrhoea [8]: 7 (46.7%) n (%)
- TRAE: Dysgeusia [8]: 2 (13.3%) n (%)
- TRAE: Fatigue [8]: 4 (26.7%) n (%)
- TRAE: Gastrointestinal disorders [8]: 11 (73.3%) n (%)
- TRAE: General disorders and administration site conditions [8]: 4 (26.7%) n (%)
- TRAE: Metabolism and nutrition disorders [8]: 3 (20.0%) n (%)
- TRAE: Nausea [8]: 8 (53.3%) n (%)
- TRAE: Nervous system disorders [8]: 2 (13.3%) n (%)
- TRAE: Skin and subcutaneous tissue disorders [8]: 2 (13.3%) n (%)
- TRAE: Vomiting [8]: 4 (26.7%) n (%)
- Any treatment-related adverse event (TRAE) [9]: 18 (90.0%) n (%)
- TRAE: Decreased appetite [9]: 5 (25.0%) n (%)
- TRAE: Diarrhoea [9]: 10 (50.0%) n (%)
- TRAE: Dysgeusia [9]: 2 (10.0%) n (%)
- TRAE: Fatigue [9]: 5 (25.0%) n (%)
- TRAE: Gastrointestinal disorders [9]: 16 (80.0%) n (%)
- TRAE: General disorders and administration site conditions [9]: 6 (30.0%) n (%)
- TRAE: Metabolism and nutrition disorders [9]: 6 (30.0%) n (%)
- TRAE: Nausea [9]: 11 (55.0%) n (%)
- TRAE: Nervous system disorders [9]: 4 (20.0%) n (%)
- TRAE: Skin and subcutaneous tissue disorders [9]: 6 (30.0%) n (%)
- TRAE: Vomiting [9]: 9 (45.0%) n (%)
- Any treatment-related adverse event (TRAE) [10]: 31 (88.6%) n (%)
- TRAE: Decreased appetite [10]: 8 (22.9%) n (%)
- TRAE: Diarrhoea [10]: 17 (48.6%) n (%)
- TRAE: Dysgeusia [10]: 4 (11.4%) n (%)
- TRAE: Fatigue [10]: 9 (25.7%) n (%)
- TRAE: Gastrointestinal disorders [10]: 27 (77.1%) n (%)
- TRAE: General disorders and administration site conditions [10]: 10 (28.6%) n (%)
- TRAE: Metabolism and nutrition disorders [10]: 9 (25.7%) n (%)
- TRAE: Nausea [10]: 19 (54.3%) n (%)
- TRAE: Nervous system disorders [10]: 6 (17.1%) n (%)
- TRAE: Skin and subcutaneous tissue disorders [10]: 8 (22.9%) n (%)
- TRAE: Vomiting [10]: 13 (37.1%) n (%)
- deaths (after study drug discontinuation due to progressive disease): Two deaths
- heme toxicity, ECG, neutrophil count, QT interval/QTcF (all subjects): no reports of heme toxicity or clinically significant abnormal ECG and neutrophil count changes, including QT interval or QTcF prolongation
- TEAEs leading to drug withdrawal or study discontinuation, subjects (all subjects (7/35)): 20.0%
- subjects with at least one TEAE (all subjects (34/35)): 97.1%
- subjects with Grade 3 TRAEs considered related to SLC-391 (all subjects (N = 35)): 8.6%
- subjects with a maximum of Grade 1 TEAEs (all subjects (N = 35)): 8.6%
- subjects with a maximum of Grade 2 TEAEs (all subjects (N = 35)): 54.3%
- subjects with a maximum of Grade 3 TEAEs (all subjects (N = 35)): 34.3%
- subjects with dosing interrupted due to TEAEs (all subjects (N = 35)): 25.7%
- subjects with one or more TRAE (all subjects (N = 35)): 88.6%
- subjects with SAEs (all subjects (N = 35), eight SAEs in five subjects): 14.3%
- subjects with SAEs leading to dose interruption, drug withdrawal, or study discontinuation (all subjects (N = 35), four SAEs in three subjects): 8.6%
- dose recommended by the safety review committee for further investigations (based on safety profile, PK and in vitro/in vivo efficacy data): 150 mg BID
- clinical chemistry-related toxicities (hypokalaemia, hypomagnesaemia, hyponatraemia, hypophosphataemia, increased blood creatinine, decreased blood zinc, all unrelated to SLC-391): Most clinical chemistry-related toxicities were Grade 1 or 2
